Data: ChEMBL document CHEMBL4680155, “One-pot synthesis and molecular docking of some new spiropyranindol-2-one derivatives as immunomodulatory agents and in vitro antimicrobial potential with DNA gyrase inhibitor” (Eur J Med Chem, 2020)
Values after ≈ are worked out from the molar mass of the structure shown.

Experiments:
Enterococcus faecalis [1] = test: Antibacterial activity against Enterococcus faecalis ATCC 29212 assessed as diameter of inhibition zone at 0.5 mg/ml incubated for 24 hrs by agar diffusion method; type: functional; settings: read-out: DIZ
Staphylococcus aureus [2] = test: Antibacterial activity against Staphylococcus aureus ATCC 29213 assessed as diameter of inhibition zone at 0.5 mg/ml incubated for 24 hrs by agar diffusion method; type: functional; settings: read-out: DIZ
Escherichia coli [3] = test: Antibacterial activity against Escherichia coli ATCC 25922 assessed as diameter of inhibition zone at 0.5 mg/ml incubated for 24 hrs by agar diffusion method; type: functional; settings: read-out: DIZ
Salmonella typhimurium [4] = test: Antibacterial activity against Salmonella typhi ATCC 6539 assessed as diameter of inhibition zone at 0.5 mg/ml incubated for 24 hrs by agar diffusion method; type: functional, Salmonella enterica subsp. enterica serovar Typhimurium; settings: Salmonella enterica, read-out: DIZ
Candida albicans [5] = test: Antifungal activity against Candida albicans ATCC 10231 assessed as diameter of inhibition zone at 0.5 mg/ml incubated for 24 hrs by agar diffusion method; type: functional; settings: read-out: DIZ
Aspergillus brasiliensis [6] = test: Antifungal activity against Aspergillus brasiliensis ATCC 16404 assessed as diameter of inhibition zone at 0.5 mg/ml incubated for 72 hrs by agar diffusion method; type: functional; settings: read-out: DIZ
Enterococcus faecalis [7] = test: Antibacterial activity against Enterococcus faecalis ATCC 29212 assessed as reduction in bacterial growth incubated for 1 day by paper disk diffusion method; type: functional; settings: ATCC 29212, 24 h
Staphylococcus aureus [8] = test: Antibacterial activity against Staphylococcus aureus ATCC 29213 assessed as reduction in bacterial growth incubated for 1 day by paper disk diffusion method; type: functional; settings: ATCC 29213, 24 h
Escherichia coli [9] = test: Antibacterial activity against Escherichia coli ATCC 25922 assessed as reduction in bacterial growth incubated for 1 day by paper disk diffusion method; type: functional; settings: ATCC 25922, 24 h
Salmonella typhimurium [10] = test: Antibacterial activity against Salmonella typhi ATCC 6539 assessed as reduction in bacterial growth incubated for 1 day by paper disk diffusion method; type: functional, Salmonella enterica subsp. enterica serovar Typhimurium; settings: Salmonella enterica, ATCC 6539, 24 h
Candida albicans [11] = test: Antifungal activity against Candida albicans ATCC 10231 assessed as reduction in bacterial growth incubated for 1 day by paper disk diffusion method; type: functional; settings: ATCC 10231, 24 h
Aspergillus brasiliensis [12] = test: Antifungal activity against Aspergillus brasiliensis ATCC 16404 assessed as reduction in bacterial growth incubated for 3 days by paper disk diffusion method; type: functional; settings: ATCC 16404, 72 h, time 3 day
Enterococcus faecalis [13] = test: Bactericidal activity against Enterococcus faecalis ATCC 29212 incubated for 24 hrs followed by transferring to freshly prepared broth medium and measured after 24 hrs by broth microdilution assay; type: functional; settings: time 48 hrs
Staphylococcus aureus [14] = test: Bactericidal activity against Staphylococcus aureus ATCC 29213 incubated for 24 hrs followed by transferring to freshly prepared broth medium and measured after 24 hrs by broth microdilution assay; type: functional; settings: time 48 hrs
Escherichia coli [15] = test: Bactericidal activity against Escherichia coli ATCC 25922 incubated for 24 hrs followed by transferring to freshly prepared broth medium and measured after 24 hrs by broth microdilution assay; type: functional; settings: time 48 hrs
Salmonella typhimurium [16] = test: Bactericidal activity against Salmonella typhi ATCC 6539 incubated for 24 hrs followed by transferring to freshly prepared broth medium and measured after 24 hrs by broth microdilution assay; type: functional, Salmonella enterica subsp. enterica serovar […]; settings: Salmonella enterica, time 48 hrs
Candida albicans [17] = test: Fungicidal activity against Candida albicans ATCC 10231 incubated for 24 hrs followed by transferring to freshly prepared broth medium and measured after 24 hrs by broth microdilution assay; type: functional; settings: time 48 hrs
Aspergillus brasiliensis [18] = test: Fungicidal activity against Aspergillus brasiliensis ATCC 16404 incubated for 72 hrs followed by transferring to freshly prepared broth medium and measured after 24 hrs by broth microdilution assay; type: functional; settings: time 96 hrs
Staphylococcus aureus [19] = test: Antibacterial activity against multidrug resistant Staphylococcus aureus ATCC 43300 assessed as diameter of inhibition zone at 0.5 mg/ml incubated for 24 hrs by agar diffusion method; type: functional; settings: read-out: DIZ
Staphylococcus aureus [20] = test: Antibacterial activity against multidrug resistant Staphylococcus aureus ATCC 33591 assessed as diameter of inhibition zone at 0.5 mg/ml incubated for 24 hrs by agar diffusion method; type: functional; settings: read-out: DIZ
Escherichia coli [21] = test: Antibacterial activity against multidrug resistant Escherichia coli ATCC BAA-196 assessed as diameter of inhibition zone at 0.5 mg/ml incubated for 24 hrs by agar diffusion method; type: functional; settings: read-out: DIZ
Pseudomonas aeruginosa [22] = test: Antibacterial activity against multidrug resistant Pseudomonas aeruginosa ATCC BAA-2111 assessed as diameter of inhibition zone at 0.5 mg/ml incubated for 24 hrs by agar diffusion method; type: functional; settings: read-out: DIZ
Staphylococcus aureus [23] = test: Antibacterial activity against multidrug resistant Staphylococcus aureus ATCC 43300 assessed as reduction in bacterial growth incubated for 1 day by paper disk diffusion method; type: functional; settings: ATCC 43300, 24 h
Staphylococcus aureus [24] = test: Antibacterial activity against multidrug resistant Staphylococcus aureus ATCC 33591 assessed as reduction in bacterial growth incubated for 1 day by paper disk diffusion method; type: functional; settings: ATCC 33591, 24 h
Escherichia coli [25] = test: Antibacterial activity against multidrug resistant Escherichia coli ATCC BAA-196 assessed as reduction in bacterial growth incubated for 1 day by paper disk diffusion method; type: functional; settings: ATCC BAA-196, 24 h
Pseudomonas aeruginosa [26] = test: Antibacterial activity against multidrug resistant Pseudomonas aeruginosa ATCC BAA-2111 assessed as reduction in bacterial growth incubated for 1 day by paper disk diffusion method; type: functional; settings: ATCC BAA-2111, 24 h
Staphylococcus aureus [27] = test: Bactericidal activity against Staphylococcus aureus ATCC 43300 incubated for 24 hrs followed by transferring to freshly prepared broth medium and measured after 24 hrs by broth microdilution assay; type: functional; settings: time 48 hrs
Staphylococcus aureus [28] = test: Bactericidal activity against Staphylococcus aureus ATCC 33591 incubated for 24 hrs followed by transferring to freshly prepared broth medium and measured after 24 hrs by broth microdilution assay; type: functional; settings: time 48 hrs
Escherichia coli [29] = test: Bactericidal activity against Escherichia coli ATCC BAA-196 incubated for 24 hrs followed by transferring to freshly prepared broth medium and measured after 24 hrs by broth microdilution assay; type: functional; settings: time 48 hrs
Pseudomonas aeruginosa [30] = test: Bactericidal activity against Pseudomonas aeruginosa ATCC BAA-2111 incubated for 24 hrs followed by transferring to freshly prepared broth medium and measured after 24 hrs by broth microdilution assay; type: functional; settings: time 48 hrs
Neutrophil = test: Immunomodulatory activity in human neutrophils infected with bacteria assessed as increase in bacterial killing by measuring reduced NBT incubated for 30 mins by NBT dye based spectrophotometry; type: functional; design: concentration or dose not given beside the values; settings: 0.5 h
DNA gyrase = DNA gyrase (Staphylococcus aureus, UniProt P0A0K8+P20831); test: Inhibition of Staphylococcus aureus DNA gyrase using relaxed pBR322 DNA as substrate incubated for 45 mins by agarose gel electrophoresis method; type: protein-complex assay
Sequence of DNA gyrase (P0A0K8 whole entry): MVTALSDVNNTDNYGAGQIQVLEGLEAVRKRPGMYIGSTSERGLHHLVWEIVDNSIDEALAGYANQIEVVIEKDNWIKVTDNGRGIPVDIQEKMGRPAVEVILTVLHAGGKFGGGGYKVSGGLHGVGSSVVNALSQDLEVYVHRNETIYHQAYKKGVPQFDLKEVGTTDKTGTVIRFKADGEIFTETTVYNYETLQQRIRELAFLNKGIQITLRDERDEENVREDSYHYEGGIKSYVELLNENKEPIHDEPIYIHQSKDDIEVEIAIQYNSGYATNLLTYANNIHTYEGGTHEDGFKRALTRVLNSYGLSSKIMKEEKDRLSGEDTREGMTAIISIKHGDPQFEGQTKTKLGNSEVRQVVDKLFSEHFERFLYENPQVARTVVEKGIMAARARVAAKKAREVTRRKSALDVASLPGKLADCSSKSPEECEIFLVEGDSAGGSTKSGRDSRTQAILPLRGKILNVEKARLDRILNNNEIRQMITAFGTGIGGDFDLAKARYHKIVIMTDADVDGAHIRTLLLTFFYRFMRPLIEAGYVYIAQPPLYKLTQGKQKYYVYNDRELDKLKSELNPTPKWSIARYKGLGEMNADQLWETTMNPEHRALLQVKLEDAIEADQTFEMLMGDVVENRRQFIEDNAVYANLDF
Sequence of DNA gyrase (P20831 whole entry): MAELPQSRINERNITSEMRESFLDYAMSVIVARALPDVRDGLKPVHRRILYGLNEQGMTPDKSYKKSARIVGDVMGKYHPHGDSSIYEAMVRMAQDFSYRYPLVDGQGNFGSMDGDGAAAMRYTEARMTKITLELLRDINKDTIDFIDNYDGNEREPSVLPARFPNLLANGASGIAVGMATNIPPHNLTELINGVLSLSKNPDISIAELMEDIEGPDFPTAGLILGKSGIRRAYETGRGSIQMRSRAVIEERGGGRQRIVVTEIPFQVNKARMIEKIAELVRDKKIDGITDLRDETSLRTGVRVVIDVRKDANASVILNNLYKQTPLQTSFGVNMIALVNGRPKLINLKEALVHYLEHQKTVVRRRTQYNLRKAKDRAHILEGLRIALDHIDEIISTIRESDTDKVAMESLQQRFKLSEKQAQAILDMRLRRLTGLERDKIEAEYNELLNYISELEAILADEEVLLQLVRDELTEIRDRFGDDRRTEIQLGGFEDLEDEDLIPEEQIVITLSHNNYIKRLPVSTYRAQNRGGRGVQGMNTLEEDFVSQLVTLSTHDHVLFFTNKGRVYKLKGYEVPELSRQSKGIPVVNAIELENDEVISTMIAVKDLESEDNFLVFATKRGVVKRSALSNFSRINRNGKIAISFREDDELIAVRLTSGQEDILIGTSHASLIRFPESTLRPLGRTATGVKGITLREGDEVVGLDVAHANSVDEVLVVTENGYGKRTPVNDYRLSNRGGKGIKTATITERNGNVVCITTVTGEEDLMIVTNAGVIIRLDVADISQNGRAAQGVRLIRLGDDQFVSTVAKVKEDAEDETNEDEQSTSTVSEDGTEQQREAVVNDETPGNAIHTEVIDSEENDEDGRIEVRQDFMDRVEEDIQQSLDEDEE

Row | SMILES | zone of inhibition at 500 µg/mL (Enterococcus faecalis [1]) [mm] | zone of inhibition at 500 µg/mL (Staphylococcus aureus [2]) [mm] | zone of inhibition at 500 µg/mL (Escherichia coli [3]) [mm] | zone of inhibition at 500 µg/mL (Salmonella typhimurium [4]) [mm] | zone of inhibition at 500 µg/mL (Candida albicans [5]) [mm] | zone of inhibition at 500 µg/mL (Aspergillus brasiliensis [6]) [mm] | MIC (Enterococcus faecalis [7]) [µg/mL] | MIC (Staphylococcus aureus [8]) [µg/mL] | MIC (Escherichia coli [9]) [µg/mL] | MIC (Salmonella typhimurium [10]) [µg/mL] | MIC (Candida albicans [11]) [µg/mL] | MIC (Aspergillus brasiliensis [12]) [µg/mL] | MBC (Enterococcus faecalis [13]) [µg/mL] | MBC (Staphylococcus aureus [14]) [µg/mL] | MBC (Escherichia coli [15]) [µg/mL] | MBC (Salmonella typhimurium [16]) [µg/mL] | MFC (Candida albicans [17]) [µg/mL] | MFC (Aspergillus brasiliensis [18]) [µg/mL] | zone of inhibition at 500 µg/mL (Staphylococcus aureus [19]) [mm] | zone of inhibition at 500 µg/mL (Staphylococcus aureus [20]) [mm] | also measured
1 | N#CC(C#N)=C1C(=O)Nc2ccc(S(=O)(=O)N3CCOCC3)cc21 | 23 | 24 | 25 | 23 | 22 | 19 | 8.88 (≈ 25.8 µM) | 35.5 (≈ 103 µM) | 7.81 (≈ 22.7 µM) | 15.6 (≈ 45.4 µM) | 6.25 (≈ 18.2 µM) | 62.5 (≈ 182 µM) | 11.5 (≈ 33.5 µM) | 46.2 (≈ 134 µM) | 15.6 (≈ 45.4 µM) | 28.1 (≈ 81.6 µM) | 12.5 (≈ 36.3 µM) | 100 (≈ 290 µM) | 24 | 24 | zone of inhibition at 500 µg/mL (Escherichia coli [21]): 25 mm; zone of inhibition at 500 µg/mL (Pseudomonas aeruginosa [22]): 23 mm; MIC (Staphylococcus aureus [23]): 3.9 µg/mL (≈ 11.3 µM); MIC (Staphylococcus aureus [24]): 4.44 µg/mL (≈ 12.9 µM); MIC (Escherichia coli [25]): 3.9 µg/mL (≈ 11.3 µM); MIC (Pseudomonas aeruginosa [26]): 4.44 µg/mL (≈ 12.9 µM); MBC (Staphylococcus aureus [27]): 5.04 µg/mL (≈ 14.6 µM); MBC (Staphylococcus aureus [28]): 8.88 µg/mL (≈ 25.8 µM); MBC (Escherichia coli [29]): 6.24 µg/mL (≈ 18.1 µM); MBC (Pseudomonas aeruginosa [30]): 7.99 µg/mL (≈ 23.2 µM); Activity (Neutrophil): 145.7%; IC50 (DNA gyrase): 26.4 µM
2 | CC(=O)C1=C(c2ccccc2)OC(N)=C(C#N)C12C(=O)Nc1ccc(S(=O)(=O)N3CCOCC3)cc12 (stereo unspecified) | 26 | 24 | 23 | 22 | 23 | 20 | 12.5 (≈ 24.7 µM) | 17.8 (≈ 35.1 µM) | 12.5 (≈ 24.7 µM) | 62.5 (≈ 123 µM) | 15.6 (≈ 30.8 µM) | 71.8 (≈ 142 µM) | 20 (≈ 39.5 µM) | 23.1 (≈ 45.6 µM) | 21.2 (≈ 42 µM) | 81.2 (≈ 160 µM) | 31.2 (≈ 61.7 µM) | 108 (≈ 213 µM) | 25 | 26 | zone of inhibition at 500 µg/mL (Escherichia coli [21]): 23 mm; zone of inhibition at 500 µg/mL (Pseudomonas aeruginosa [22]): 22 mm; MIC (Staphylococcus aureus [23]): 0.97 µg/mL (≈ 1.91 µM); MIC (Staphylococcus aureus [24]): 0.97 µg/mL (≈ 1.91 µM); MIC (Escherichia coli [25]): 6.25 µg/mL (≈ 12.3 µM); MIC (Pseudomonas aeruginosa [26]): 4.44 µg/mL (≈ 8.77 µM); MBC (Staphylococcus aureus [27]): 145 µg/mL (≈ 286 µM); MBC (Staphylococcus aureus [28]): 1.94 µg/mL (≈ 3.83 µM); MBC (Escherichia coli [29]): 5.85 µg/mL (≈ 11.5 µM); MBC (Pseudomonas aeruginosa [30]): 6.66 µg/mL (≈ 13.1 µM); Activity (Neutrophil): 123.5%; IC50 (DNA gyrase): 24.8 µM
3 | CCOC(=O)C1=C(c2ccccc2)OC(N)=C(C#N)C12C(=O)Nc1ccc(S(=O)(=O)N3CCCCC3)cc12 (stereo unspecified) | 24 | 21 | 23 | 24 | 22 | 20 | 15.6 (≈ 29.2 µM) | 71.1 (≈ 133 µM) | 15.6 (≈ 29.2 µM) | 15.6 (≈ 29.2 µM) | 12.5 (≈ 23.4 µM) | 62.5 (≈ 117 µM) | 31.2 (≈ 58.4 µM) | 99.5 (≈ 186 µM) | 21.9 (≈ 40.9 µM) | 20.3 (≈ 38 µM) | 25 (≈ 46.8 µM) | 125 (≈ 234 µM) | 24 | 25 | zone of inhibition at 500 µg/mL (Escherichia coli [21]): 26 mm; zone of inhibition at 500 µg/mL (Pseudomonas aeruginosa [22]): 24 mm; MIC (Staphylococcus aureus [23]): 1.95 µg/mL (≈ 3.65 µM); MIC (Staphylococcus aureus [24]): 1.95 µg/mL (≈ 3.65 µM); MIC (Escherichia coli [25]): 1.57 µg/mL (≈ 2.94 µM); MIC (Pseudomonas aeruginosa [26]): 3.9 µg/mL (≈ 7.3 µM); MBC (Staphylococcus aureus [27]): 2.92 µg/mL (≈ 5.46 µM); MBC (Staphylococcus aureus [28]): 3.31 µg/mL (≈ 6.19 µM); MBC (Escherichia coli [29]): 2.35 µg/mL (≈ 4.4 µM); MBC (Pseudomonas aeruginosa [30]): 6.24 µg/mL (≈ 11.7 µM); Activity (Neutrophil): 95.4%; IC50 (DNA gyrase): 19.8 µM
